Assay results published in ChEMBL document CHEMBL4321875, “Potent, Selective, Water Soluble, Brain-Permeable EP2 Receptor Antagonist for Use in Central Nervous System Disease Models” (J Med Chem, 2020).
≈ marks a conversion by molar mass, not a printed value.

Columns and labels:
[1] = Aqueous solubility in PBS pH 7.4 incubated for 24 hrs by nephelometry; type: physicochemical
[2] = Solubility of compound at 2 mg/ml incubated for 24 hrs by shake flask thermodynamic solubility method based HPLC analysis; type: physicochemical
[3] = Stability in mouse liver microsomes assessed as half life at 1 uM incubated for 120 mins by LC-MS/MS analysis; type: ADME, Microsome; settings: 2 h

SMILES	solubility kinetic at 24 h [1] [µM]	solubility thermodynamic at 24 h [2] [µM]	t1/2 [3] [min]
Cc1[nH]c2ccccc2c1CCNC(=O)c1ccc(N2CCOCC2)nc1	206 (≈ 75.1 µg/mL)		
Cc1[nH]c2ccccc2c1CCNC(=O)c1cnc(Nc2ccncc2)nc1	38 (≈ 14.2 µg/mL)		
Cc1ccc(Nc2ncc(C(=O)NCCc3c(C)[nH]c4ccccc34)cn2)c(C)n1	100 (≈ 40 µg/mL)		
Cc1[nH]c2ccccc2c1CCNC(=O)c1ccc(N2CCOCC2)cc1	70 (≈ 25.4 µg/mL)		
Cc1cc(C)nc(Nc2ncc(C(=O)NCCc3c(C(F)(F)F)[nH]c4ccccc34)cn2)c1	45 (≈ 20.5 µg/mL)		
Cc1cc(C)nc(Nc2ncc(C(=O)NCCc3c(C(F)(F)F)[nH]c4ccccc34)cn2)c1.Cl		700	
Cc1ccnc(Nc2ncc(C(=O)NCCc3c(C)[nH]c4ccccc34)cn2)c1	25 (≈ 9.66 µg/mL)		8
